From patent US12246010B2, “Formulations of tegavivint and related compounds” (Iterion Therapeutics, Inc., priority 2018, dated 2025)
Converted amounts (≈) assume the structure as drawn. “And” between values parts separate entries of the source, which are not always exact repeats. Equal entries are not always repeated. Where two headings read alike, the source gives them in different places.

What was measured:
[1] = Lung concentration after nebulized whole body exposure of mice; assay type: in vivo, bcat-Ex3 mice; settings: for concentration at 5 day: male, bcat-Ex3, mouse, lung, inhaled
Procedure: The purpose of this experiment was to test nebulized delivery of nanosuspensions.
Tegavivint particles suspended in Poloxamer 188/sorbitol at a concentration of 25 mg/mL were used.
These formulations were applied to the mice in the form of aerosols, through the method of whole body exposure. The mice were placed inside a plastic box. This box was sealed and connected by one of its sides to the outlet of the nebulizer device, and on the other side to a system of closed water. The whole procedure was carried out inside the fume hood of the animal room.
For the first experiment, the nebulizer kit of SATER LABS was used. This device uses the jet system. The device was primed with 5 ml of the drug, i.e. 125 mg of tegavivint (BC2059), for each group of 5 mice, and then the device was connected to the power source for nebulization. The energy was supplied by a DeVilbiss compressor model 646, which allows 5-7 pounds of pressure, and a flow of 6-8 liters per minute. For the second experiment, the device used was the Altera, ultrasonic nebulizer.
For the two experiments, 10 male bcat-Ex3 mice were used for each set. These mice were separated into 2 groups of 5 mice each. The first group received the drug daily, for 5 consecutive days. The second group received the drug only once (the fifth day). On day 5 all mice were sacrificed, lung harvested, and samples were stored at −30 degrees, in two labeled nylon bags, each containing the 5 samples from each group.

red blood cells = assay: Hemolysis of red blood cells; assay type: cell-based; settings: in the nanoparticle form or when dissolved in DMSO
Source text: It was hypothesized that the tween/ethanol/PEG/Vitamin E/Intralipid solvent-based excipients and probable drug precipitation were responsible for the infusion reactions and not tegavivint itself.

[2] = Aerosol concentration of nebulized formulations in rodent nose-only exposure chamber; assay type: physicochemical
Source text: A series of BC-2059 (tegavivint) formulations were aerosolized using vibrating mesh and compressed air nebulizers to determine the most efficient method of aerosol generation. The aerosols were characterized for aerosol concentration and particle size distribution in a rodent nose-only exposure chamber. Each formulation had different variables adjusted to assess impact on aerosol performance. These included particle size reduction of the API, excipient profile and nebulizer utilized.
Test article BC-2059 was suspended in 0.1% Tween 80 in purified water at a concentration of 15 mg/mL. The suspension was sonicated using a Covaris S220x Ultrasonicator (Covaris, Boston MA) and then mixed on a vortex for one minute. Sonication and mixing by vortex was repeated a total of 15 times.
The remaining bulk BC-2059 powder was ground in a Planetary Ball Mill (Retsch, Germany) for 10 minutes at 150 RPMs utilizing a 12 mL ball mill jar and three metal balls. The milled BC-2059 powder was suspended in 0.1% Tween 80 in purified water at a concentration of 15 mg/mL. The suspension was sonicated using the procedure outlined above.
The remaining bulk BC-2059 powder was ground in a Planetary Ball Mill (Retsch, Germany) for 60 minutes at 300 RPMs utilizing a 12 mL ball mill jar and three metal balls. The milled BC-2059 powder was suspended in 0.1% Tween 80 in purified water and 10% PEG 400 in purified water at a concentration of 15 mg/mL. The suspensions were sonicated using the procedure outlined above. An additional 15 mg/mL BC-2059 suspension using 10% ethanol in purified water was prepared. The suspension was sonicated for 10 minutes using a VWR sonicator (VWR, Radnor PA) and mixed for 4 minutes using a vortex mixer. […]
The aerosols were generated from formulations prepared with a series of surfactants with 4 separate nebulizers (Aeroneb Solo (Aerogen, Ireland), Pari LC Plus (Pari Respiratory Equipment Inc. Midlothian VA), Hospitak Up Mist, Hospitak Inc. Farmdale, NY), and Hudson Micro-Mist (Teleflex Inc. Research Triangle Park, NC) and transitioned into a 2 tier flow-past rodent exposure system.
The total concentration of aerosol in the exposure atmosphere was determined by the analysis of filter samples (GF/A 47-mm filters). Filter samples were collected at a nominal flow rate of 0.3 L/min. Filter samples collected throughout the study were analyzed gravimetrically to determine the total aerosol concentration, and submitted for HPLC analysis.
Filters with test article were extracted in 1:1 acetonitrile: methanol and analyzed by the HPLC-UV assay.

[3] = Tegavivint solubility in water and organic solvents; assay type: physicochemical
Procedure: In organic solvents, tegavivint has solubilities as shown: DMSO (334 μg/mL), ethanol (260 μg/mL), methanol (299 μg/mL), acetone (1 mcg/mL), dichloromethane:ethanol (1:4) (1 mg/mL).

[4] = tested on: bleomycin-induced idiopathic pulmonary fibrosis (IPF); assay: Bleomycin-induced IPF mouse model: body weight; assay type: in vivo, C57BL/6 male mice
Procedure: The purpose of this experiment was to investigate tegavivint nanosuspension in a mouse model of bleomycin-induced idiopathic pulmonary fibrosis (IPF). Test articles were as follows:
Tegavivint (BC2059) in a nano-milled suspension 25 mg/mL in 0.625% poloxamer 188 and 10% sorbitol. The test article was refrigerated at about 4° C.
Nebulizing equipment was Altera ultrasonic eRapid machine nebulizer (model #678G1002).
Animals were 8-12 week old C57BL/6 male mice (Jackson Lab, Bar Harbor, ME).
Murine model of pulmonary fibrosis was induced by intratracheally (IT) injected bleomycin (APP Pharmaceuticals, Schaumburg, IL). One dose of 0.025 U bleomycin dissolved in 50 microliters of Saline 0.9%, or PBS as control was administered to each animal on day 0.
Tegavivint nanosuspension was applied to Group 3 in the form of aerosols, through the method of whole body exposure. The mice were placed inside a plastic box. This box was sealed and connected by one of its sides to the outlet of the nebulizer device, and on the other side to a system of closed water. The whole procedure was carried out inside the fume hood of the animal room. In each treatment session, 5 ml of 25 mg/ml Tegavivint (125 mg) was nebulized over 15 min to each group of 4-5 mice in the chamber. […]
The body weight of animals was recorded on Days 0, 5, 8, 12, 16, 19, and 21.

[5] = mouse lung, Nebulizer (ultrasonic eRapid, Altera), 5 daily doses on Days 1-5
[6] = Covaris and Ball Mill (60 min), 0.1% Tween 80, 15.06 mg/mL, Hospitak
[7] = Covaris and Ball Mill (60 min), 0.1% Tween 80, 15.08 mg/mL, Hudson MicroMist
[8] = Covaris and Ball Mill (60 min), 10% PEG-400, 15.08 mg/mL, Hudson MicroMist
[9] = Covaris, 0.1% Tween 80, 15.04 mg/mL, Aeroneb Solo
[10] = Sonicator and Ball Mill (60 min), 10% Ethanol, 15.00 mg/mL, Hudson MicroMist

In the case of C[C@@H]1C[C@H](C)CN(S(=O)(=O)c2ccc3c(c2)C(=NO)c2cc(S(=O)(=O)N4C[C@H](C)C[C@H](C)C4)ccc2C3=NO)C1 [BC2059, tegavivint], the concentration at 5 day ([1]; Nebulizer (ultrasonic eRapid, Altera), 5 daily doses on Days 1-5, read-out: Lung Concentration (ng/g)) is reported as 19100 ng/g, the concentration at 5 day ([1]; Nebulizer (ultrasonic eRapid, Altera), 5 daily doses on Days 1-5, read-out: Lung Concentration (ng/mL)) is reported as 4770 ng/mL and the “lung tissue concentration in the previous testing (assayed concentration)” value ([1]; mouse lung, previous nebulization testing) is reported as ~0.02 mg/g. For the same compound, the “Lung Concentration (ng/g)” value [1, 5] was 17200 ng/g and 18800 ng/g and 12200 ng/g and 22900 ng/g, the “Lung Concentration (ng/mL)” value [1, 5] was 4290 ng/mL and 4690 ng/mL and 3040 ng/mL and 5730 ng/mL and the “hemolysis of red blood cells” value (red blood cells) was “does not cause hemolysis”. For the same compound, the “Total Aerosol Conc.” value ([2]; Covaris and Ball Mill (10 min), 0.1% Tween 80, 15.58 mg/mL, Pari LC Plus) was 0.123 mg/L, the “BC-2059 Aerosol Conc.” value [2, 6] was 66 µg/L and the “Total Aerosol Conc.” value [2, 6] was 0.229 mg/L. For the same compound, the “BC-2059 Aerosol Conc.” value [2, 7] was 86 µg/L, the “Total Aerosol Conc.” value [2, 7] was 0.093 mg/L and the “BC-2059 Aerosol Conc.” value [2, 8] was 7.2 µg/L. For the same compound, the “Total Aerosol Conc.” value [2, 8] was 2.58 mg/L, the “BC-2059 Aerosol Conc.” value [2, 9] was 1.3 µg/L and the “Total Aerosol Conc.” value [2, 9] was 0.247 mg/L. For the same compound, the “BC-2059 Aerosol Conc.” value [2, 10] was 20.2 µg/L, the “Total Aerosol Conc.” value [2, 10] was 0.027 mg/L and the solubility ([3]; DMSO, organic solvent or mixture, read-out: solubility in DMSO) was 334 µg/mL (≈ 567 µM). The solubility ([3]; acetone, organic solvent or mixture, read-out: solubility in acetone) was 1 µg/mL (≈ 1.7 µM), the solubility ([3]; dichloromethane:ethanol (1:4), organic solvent or mixture, read-out: solubility in dichloromethane:ethanol (1:4)) was 1000 µg/mL (≈ 1700 µM) and the solubility ([3]; ethanol, organic solvent or mixture, read-out: solubility in ethanol) was 260 µg/mL (≈ 442 µM). For the same compound, the solubility ([3]; methanol, organic solvent or mixture, read-out: solubility in methanol) was 299 µg/mL (≈ 508 µM), the solubility ([3]; water, aqueous buffer, across the pH range of 2 to 10, read-out: solubility in water) was < 0.25 µg/mL and the “effect on body weight loss caused by bleomycin” value ([4]; Group 3, inhaled) was “reversed the body weight loss”. For the same compound, the “Change in body weight (%)” value ([4]; Group 3: IT bleomycin Day 0, 5 ml of 25 mg/ml tegavivint aerosol BID Day 5-21, individual animals) was −2.83% and 5.2% and 7.3% (2×) and 7.9%.
